Source: patent US20090176726A1, “METHODS FOR TREATING MITF-RELATED DISORDERS” (priority 2005, published 2009)
Where two headings read alike, the source gives them in different places.

Assays:
MITF [1] = test: MITF protein level in human melanoma cells (UACC62); format: cell-based
HIF-1α [2] = test: HIF-1α protein level in human melanoma cells (UACC62); format: cell-based
MITF [3] = test: MITF expression in UACC62 cells transfected with constitutive MITF vector or empty vector; format: cell-based, human; details: increasing levels of DMOG
Description: (§1) Human melanoma cells (UACC62) were transfected with a vector that constitutively expresses MITF off a promoter different from its natural promoter. As a control, other cells were transfected with empty vector. Both cell types were exposed to increasing levels of DMOG, which mimics certain aspects of hypoxia in upregulating HIF.

[4] = system: Human melanoma cells (UACC62); test: Cell death of transfected UACC62 cells exposed to DMOG; format: cell-based
Description: as §1

MITF [5] = format: cell-based, human
HIF-1α [6] = format: cell-based, human
MITF mRNA = format: cell-based, human
FoxD1 = format: cell-based, human
[7] = UACC62 cells transformed with empty vector
[8] = UACC62 cells, 200 μM DFO, 0, 2, 6, 8 and 24 hrs, FIG. 4B

Structure (SMILES): COC(=O)CNC(=O)C(=O)OC [DMOG, dimethyl-oxalylglycine]
- level of MITF protein (MITF [1]; UACC62 cells, 1 mM DMOG, 0, 2, 6, 8 and 24 hrs, FIG. 4A): decreased
- HIF-1α levels at 24 hours (HIF-1α [2]; UACC62 cells, 1 mM DMOG, 24 hours compared with 8 hours, FIG. 4A): somewhat lower than at 8 hours
- HIF-1α protein level, 2 to 8 hours (HIF-1α [2]; UACC62 cells, 1 mM DMOG, FIG. 4A): increased steadily
- MITF expression (MITF [3]; [7]): significant decrease
- MITF expression (MITF [3]; UACC62 cells transformed with vector that constitutively expresses MITF): did not exhibit a detectable decrease
- cell death ([4]; UACC62 cells that constitutively express MITF, at DMOG levels lethal to empty vector cells): protected from cell death
- cell death [4, 7]: lethal

Structure (SMILES): [Cl-].[Cl-].[Co+2] [CoCl2]
- level of MITF protein (MITF [5]): decreased as CoCl2 was increased
- level of HIF-1α (HIF-1α [6]): increased as CoCl2 was increased
- MITF mRNA levels (MITF mRNA): decreased
- MITF protein levels (MITF [1]): decreased
- downregulation of MITF by CoCl2 (MITF [1]): substantially blocked
- level of MITF protein (MITF [1]): decreased
- HIF-1α levels (HIF-1α [2]): increased
- level of HIF-1α protein (HIF-1α [2]): increased
- FoxD1 expression (microarray) (FoxD1): upregulated

Structure (SMILES): CC(=O)N(O)CCCCCNC(=O)CCC(=O)N(O)CCCCCNC(=O)CCC(=O)N(O)CCCCCN [DFO, desferrioxamine]
- MITF protein levels (MITF [1]; [8]): decreased steadily
- HIF-1α protein levels (HIF-1α [2]; [8]): increased steadily
